From paper PMC4403932 (Journal of Medicinal Chemistry, 2015)
Where two headings read alike, the source gives them in different places.

Assays:
Assay type in all cases: binding
[1] = target: T1, BRD4(1) (Homo sapiens, UniProt O60885); experiment: Isothermal titration calorimetry, BRD4(1)
T1 construct: made in house
Experimental: (§1) Experiments were carried out on an ITC200 titration microcalorimeter from MicroCal, LLC (GE Healthcare) equipped with a Washing module, with a cell volume of 0.2003 mL, and a 40 μL microsyringe. Experiments were carried out at 15 °C while stirring at 1000 rpm, in ITC buffer (50 mM HEPES, pH 7.5 (at 25 °C), 150 mM NaCl). The microsyringe was loaded with a solution of the protein sample (300−740 μM protein for BRD9 and BRD4(1), respectively, in ITC buffer) and was carefully inserted into the calorimetric cell which was filled with an amount of the ligand (0.2 mL, 20–25 μM in ITC buffer). The system was first allowed to equilibrate until the cell temperature reached 15 °C, and an additional delay of 60 s was applied. All titrations were conducted using an initial control injection of 0.3 μL followed by 38 identical injections of 1 μL with a duration of 2 s (per injection) and a spacing of 120 s between injections. The titration experiments were designed in such a fashion as to ensure complete saturation of the proteins before the final injection. The heat of dilution for the proteins was independent of their concentration and corresponded to the heat observed from the last injection, following saturation of ligand binding, thus facilitating the estimation of the baseline of each titration from the last injection. The collected data were corrected for protein heats of dilution (measured on separate experiments by titrating the proteins into ITC buffer) and deconvoluted using the MicroCal Origin software supplied with the instrument to yield enthalpies of binding (ΔH) and binding constants (KB) in the same fashion as that previously described in detail by Wiseman and co-workers.[66] Thermodynamic parameters were calculated using the basic equation of thermodynamics (ΔG = ΔH – TΔS = −RT ln KB, where ΔG, ΔH, and ΔS are the changes in free energy, enthalpy, and entropy of binding, respectively). In all cases a single binding site model was employed, supplied with the MicroCal Origin software package.

[2] = target: T2, BRD9 (Homo sapiens, UniProt Q9H8M2); experiment: Isothermal titration calorimetry, BRD9
T2 construct: made in house
T2 sequence (Q9H8M2 136-240 limits assumed): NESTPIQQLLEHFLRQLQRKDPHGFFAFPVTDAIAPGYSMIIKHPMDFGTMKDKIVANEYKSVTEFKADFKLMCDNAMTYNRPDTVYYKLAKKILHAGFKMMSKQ
Experimental: as §1

[3] = target: T2, BRD9; experiment: Protein stability (thermal) shift assay, BRD9
Experimental: (§2) Thermal melting experiments were carried out using an Mx3005p real time PCR machine (Stratagene). Proteins were buffered in 10 mM HEPES, pH 7.5, 500 mM NaCl and assayed in a 96-well plate at a final concentration of 2 μM in 20 μL volume. Compounds were added at a final concentration of 10 or 100 μM. SYPRO Orange (Molecular Probes) was added as a fluorescence probe at a dilution of 1 in 1000. Excitation and emission filters for the SYPRO-Orange dye were set to 465 and 590 nm, respectively. The temperature was raised with a step of 3 °C per minute from 25 to 96 °C, and fluorescence readings were taken at each interval. The temperature dependence of the fluorescence during the protein denaturation process was approximated by the equation [drawing 1] where ΔuG is the difference in unfolding free energy between the folded and unfolded state, R is the gas constant, and yF and yU are the fluorescence intensity of the probe in the presence of completely folded and unfolded protein, respectively.[65] The baselines of the denatured and native states were approximated by a linear fit. The observed temperature shifts, ΔTm^obs, were recorded as the difference between the transition midpoints of sample and reference wells containing protein without ligand in the same plate and determined by nonlinear least-squares fit. Temperature shifts (ΔTm^obs) for three independent measurements per proteins/compound are summarized in Supporting Information Table S1.

[4] = target: T1, BRD4(1); experiment: Protein stability (thermal) shift assay, BRD4(1); conditions: for ΔTm at 10 µM: compound 10 μM, protein 2 μM, average of triplicate, read-out: ΔTm Shift, BRD4(1)
Experimental: as §2

[5] = target: T3, BRD2(1) (Homo sapiens, UniProt P25440); experiment: Protein stability (thermal) shift assay, BRD2(1); conditions: for ΔTm at 10 µM: compound 10 μM, protein 2 μM, average of triplicate
T3 construct: Fragments were tested in a thermal shift assay against bromodomains of the BET subfamily; made in house
Experimental: as §2

[6] = target: T4, PCAF (Homo sapiens, UniProt Q92831); experiment: Protein stability (thermal) shift assay, PCAF; conditions: for ΔTm at 10 µM: compound 10 μM, protein 2 μM, average of triplicate
T4 construct: representative BRDs from other structural subfamilies (family I, PCAF); made in house
T4 sequence (Q92831 723-827 limits assumed): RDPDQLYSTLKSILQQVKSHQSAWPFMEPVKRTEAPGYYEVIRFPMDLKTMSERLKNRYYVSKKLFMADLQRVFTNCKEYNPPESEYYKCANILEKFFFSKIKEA
Experimental: as §2

[7] = target: T5, CREBBP (Homo sapiens, UniProt Q92793); experiment: Protein stability (thermal) shift assay, CREBBP; conditions: compound 10 μM, protein 2 μM; average of triplicate; read-out: ΔTm Shift, CREBBP
T5 construct: small thermal shits (1.0–1.3 °C) for the bromodomain of CREBBP; made in house
Experimental: as §2

[8] = target: T6, BRDT(2) (Homo sapiens, UniProt Q58F21); experiment: Protein stability (thermal) shift assay, BRDT(2); conditions: compound 10 μM, protein 2 μM; average of triplicate; read-out: ΔTm Shift, BRDT(2)
T6 construct: made in house
Experimental: as §2

[9] = target: T7, PB1(5) (Homo sapiens, UniProt Q86U86); experiment: Protein stability (thermal) shift assay, PB1(5); conditions: compound 10 μM, protein 2 μM; average of triplicate
T7 construct: made in house
Experimental: as §2

[10] = target: T8, BRD2(2) (Homo sapiens, UniProt P25440); experiment: Protein stability (thermal) shift assay, BRD2(2); conditions: compound 10 μM, protein 2 μM; average of triplicate
T8 construct: made in house
Experimental: as §2

[11] = target: T9, BRD3(1) (Homo sapiens, UniProt Q15059); experiment: Protein stability (thermal) shift assay, BRD3(1); conditions: compound 10 μM, protein 2 μM; average of triplicate
T9 construct: Fragments were tested in a thermal shift assay against bromodomains of the BET subfamily; made in house
Experimental: as §2

[12] = target: T10, BRD3(2) (Homo sapiens, UniProt Q15059); experiment: Protein stability (thermal) shift assay, BRD3(2); conditions: compound 10 μM, protein 2 μM; average of triplicate
T10 construct: made in house
Experimental: as §2

[13] = target: T11, BRD4(2) (Homo sapiens, UniProt O60885); experiment: Protein stability (thermal) shift assay, BRD4(2); conditions: compound 10 μM, protein 2 μM; average of triplicate
T11 construct: made in house
Experimental: as §2

[14] = target: T12, BRDT(1) (Homo sapiens, UniProt Q58F21); experiment: Protein stability (thermal) shift assay, BRDT(1); conditions: compound 10 μM, protein 2 μM; average of triplicate
T12 construct: made in house
Experimental: as §2

[15] = target: T13, BAZ2B (Homo sapiens, UniProt Q9UIF8); experiment: Protein stability (thermal) shift assay, BAZ2B; conditions: compound 10 μM, protein 2 μM; average of triplicate; read-out: ΔTm Shift, BAZ2BA
T13 construct: representative BRDs from other structural subfamilies (family I, PCAF); family III, CREBBP; family IV, BRD9; family V, BAZ2B; made in house
T13 sequence (Q9UIF8 2060-2164 limits assumed): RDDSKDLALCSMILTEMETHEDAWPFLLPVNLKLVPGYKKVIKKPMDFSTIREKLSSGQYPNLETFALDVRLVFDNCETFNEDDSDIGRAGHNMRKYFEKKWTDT
Experimental: as §2

[16] = test system: human bromodomains (panel); experiment: Protein stability (thermal) shift assay, whole panel of human bromodomains; conditions: 10 μM compound
Experimental: as §2

[17] = ITC, 50 mM HEPES pH 7.5, 150 mM NaCl, 15 °C, reverse titration, triplicate
[18] = compound 10 μM, protein 2 μM, average of triplicate, read-out: ΔTm Shift, BRD9
[19] = ITC, 50 mM HEPES pH 7.5, 150 mM NaCl, 15 °C, reverse titration, triplicate, read-out: KD
[20] = ITC, read-out: dissociation constant
[21] = LE = ΔG/N, N number of non-hydrogen atoms

T8 sequence (P25440 344-453 limits assumed): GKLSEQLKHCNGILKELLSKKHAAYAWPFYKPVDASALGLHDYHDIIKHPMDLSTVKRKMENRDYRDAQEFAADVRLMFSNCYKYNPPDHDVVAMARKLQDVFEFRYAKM
T5 sequence (Q92793 1085-1192 limits assumed): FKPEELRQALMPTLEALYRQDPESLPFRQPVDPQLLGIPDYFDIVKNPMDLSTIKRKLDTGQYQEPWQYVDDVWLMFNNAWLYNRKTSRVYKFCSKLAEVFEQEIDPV
T3 sequence (P25440 74-180 limits assumed): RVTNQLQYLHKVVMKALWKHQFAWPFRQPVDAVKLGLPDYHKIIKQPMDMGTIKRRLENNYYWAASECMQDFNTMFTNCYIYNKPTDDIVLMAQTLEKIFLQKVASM
T10 sequence (Q15059 306-415 limits assumed): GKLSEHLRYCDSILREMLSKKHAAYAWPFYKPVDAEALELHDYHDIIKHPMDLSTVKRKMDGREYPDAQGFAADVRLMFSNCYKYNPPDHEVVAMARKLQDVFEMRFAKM
T7 sequence (Q86U86 653-763 limits assumed): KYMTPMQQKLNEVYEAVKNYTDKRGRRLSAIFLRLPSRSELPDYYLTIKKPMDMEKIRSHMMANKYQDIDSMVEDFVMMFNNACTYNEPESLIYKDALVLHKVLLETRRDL
T9 sequence (Q15059 34-140 limits assumed): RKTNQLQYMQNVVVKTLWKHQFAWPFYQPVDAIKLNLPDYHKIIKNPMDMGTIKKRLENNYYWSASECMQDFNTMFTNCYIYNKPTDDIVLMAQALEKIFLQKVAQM

SMILES | KD [2, 17] | ΔTm at 10 µM [3, 18] [°C] | ΔTm at 10 µM [4] [°C] | ΔTm at 10 µM [5] [°C] | ΔTm at 10 µM [6] [°C] | ΔTm at 10 µM [7] [°C] | ΔTm at 10 µM [8] [°C] | ΔTm at 10 µM [9] [°C] | ΔTm at 10 µM [10] [°C] | ΔTm at 10 µM [11] [°C] | ΔTm at 10 µM [12] [°C] | ΔTm at 10 µM [13] [°C] | ΔTm at 10 µM [14] [°C] | ΔTm at 10 µM [15] [°C] | also measured
Nc1nc(Br)c2nc[nH]c2n1 [Compound 2a, 2-amino-6-bromo-9H-purine] | no binding/weak | 0.01 |  |  |  |  |  |  |  |  |  |  |  |  | KD [1, 17]: no binding/weak; ΔTm at 10 µM ([3]; thermal shift, 10 μM compound, 2 μM protein, read-out: ΔTm): 1.6 °C
Cn1cnc2c(Br)nc(N)nc21 [Compound 2b, 2-Amino-6-bromo-9-methylpurine] | no binding/weak | -0.0162 | 1.4 | -0.239 | -1.6 | 3.1 | -0.4 | 1.9 | -1.8 | 0.654 | -0.6 | -2.4 | -0.8 | -0.8 | 
Nc1nc(-c2ccccc2)c2nc[nH]c2n1 [Compound 3a, 2-Amino-6-phenyl-9H-purine] |  | -0.107 | 1.4 | 1.7 | 1.3 | 0.847 | 0.7 | 0.9 | 0.9 | 0.9 | 0.6 | 0.5 | 0.739 | 0.537 | Kd [1, 19]: 12 ± 0.743 µM; ΔG ([1]; ITC, 15 °C): –6.48 kcal/mol; N (stoichiometry) ([1]; ITC, 15 °C, reverse titration): 1.03 ± 0.049; Kd [1, 20]: 12 µM; LE (ligand efficiency) [1, 21]: 0.41; Kd [2, 19]: 8.47 ± 0.237 µM; ΔG ([2]; ITC, 15 °C): –6.69 kcal/mol; N (stoichiometry) ([2]; ITC, 15 °C, reverse titration): 0.99 ± 0.010; Kd [2, 20]: 8.5 µM; LE (ligand efficiency) [2, 21]: 0.42; binding to BRD9 in the ΔTm assay (in words) ([3]; thermal shift, 10 μM compound): lack of affinity; stabilization of BRD4(1) in thermal melt assay (in words) ([4]; thermal shift, 10 μM compound): stabilized; stabilization of BRD2(1) in thermal melt assay (in words) ([5]; thermal shift, 10 μM compound): stabilized; stabilization of PCAF in thermal melt assay (in words) ([6]; thermal shift, 10 μM compound): stabilized
Nc1nc(-c2ccc(OCc3ccccc3)cc2)c2nc[nH]c2n1 [Compound 3f, 2-Amino-6-(4-(benzyloxy)phenyl)-9H-purine] |  | -0.116 | 3.5 | 2 | 2.8 | 2.6 | 3.2 | 1.5 | 3.8 | 2.2 | 4.2 | -51.9 | 1.8 |  | binding to the bromodomain panel in the ΔTm assay (in words) [16]: showed binding toward all BRDs
